The NIST ThermoML archive (doi:10.1007/s10765-006-0088-4)

Conditions: Liquid; for vapor or sublimation pressure: Closed cell (Static) method

CCC [propane]
Conditions | vapor or sublimation pressure [kPa]
280 K | 583.1
300 K | 999
320 K | 1599.8
340 K | 2432.2
360 K | 3556.3
365 K | 3894.1
367 K | 4036.8
369 K | 4184.4

mass density [kg/m3]
Conditions | 340 K | 360 K | 380 K | 400 K
3000 kPa, Vibrating tube method | 418.08 | – | – | –
5000 kPa, Vibrating tube method | 433.15 | 380.52 | – | –
10000 kPa, Buoyancy - hydrostatic balance with magnetic suspension - two sinkers | 457.22 | 423.91 | 383.94 | 334.82
20000 kPa, Buoyancy - hydrostatic balance with magnetic suspension - one sinker | 486.49 | 463.18 | 438.11 | 412.17
30000 kPa, Buoyancy - hydrostatic balance with magnetic suspension - one sinker | 506.41 | 486.97 | 466.65 | 446.42
40000 kPa, Bellows volumetry | 521.92 | 504.75 | 486.9 | 469.52
50000 kPa, Bellows volumetry | 534.58 | 519.13 | 502.92 | 487.17
60000 kPa, Bellows volumetry | 545.76 | 531.24 | 516.27 | 501.88
70000 kPa, Bellows volumetry | 555.4 | 541.74 | 527.68 | 514.4
80000 kPa, Bellows volumetry | 564.13 | 551.28 | 537.77 | 525.29
90000 kPa, Bellows volumetry | 571.96 | 559.54 | 546.83 | 534.99
100000 kPa, Bellows volumetry | 579.21 | 567.52 | 555.08 | 543.68
120000 kPa, Bellows volumetry | 592 | 581.13 | 569.69 | 559.13
140000 kPa, Bellows volumetry | 603.23 | 593.24 | 582.4 | 572.43
160000 kPa, Bellows volumetry | 613.42 | 603.94 | 593.57 | 584.27
180000 kPa, Bellows volumetry | 622.47 | 613.6 | 603.76 | 594.86
200000 kPa, Bellows volumetry | 631.34 | 622.28 | 612.75 | 604.47
